What was measured:
[1] = test system: WT yeast; experiment: Growth inhibition of wild-type yeast (dose-response); assay type: cell-based; details: relative to parent ABI1
Method: (§1) Source plates were assembled in 96 well plates using multichannel pipettes to dilute rows in 1.6-fold serial dilutions of CSMGal. […] For α-syn, the final starting OD600 was 0.02. Drug concentration ranges varied depending on efficacy, growth inhibition, and solubility in media. A Tecan EvoFreedom liquid handling robot was then used to transfer culture from 96 to 384 well format with each well being represented four times. Final well volume was 35 μL. Plates were then incubated in humidified containers at 30° C. for either 24 or 40 hours. Plates were then read with a Tecan Saphire plate reader at OD600.
(§2) Raw OD600 values were transformed to “Relative Growth” in WT cells or “% Maximum Rescue” in α-syn experiments. In WT cells, the well background was subtracted and all values were then normalized to 100% for the untreated condition. In α-syn rescue experiments, the well background was subtracted and the maximum rescue in the particular experiment was normalized to 100%.

[2] = test system: α-syn; experiment: Yeast growth rescue from α-syn toxicity (dose-response); assay type: cell-based; details: relative to parent ABI1
Method: For galactose-induction experiments, overnight cultures were grown in CSM/2% glucose to saturation and diluted 1:20 into CSM/2% raffinose for ˜2 generations. Cultures were then diluted into CSM/2% galactose at an optimum OD600 for the experiment (see ‘Growth assays’).
as §1, §2

Cc1cc(C)cc(-n2cnc3cc(C(=O)NCc4ccccc4Cl)ccc32)c1 [ABI3, N-(2-chlorobenzyl)-1-(3,5-dimethylphenyl)-1H-benzo[d]imidazole-5-carboxamide] was tested, and the “shift of concentrations for ability to inhibit growth” value [1] was “higher” and the “shift of concentrations for efficacy against α-syn” value [2] was “higher”.

From patent publication US9790188B2, “Benzimidazole derivatives and uses thereof” (Whitehead Institute for Biomedical Research, priority 2013, dated 2017)
